Results reported in patent publication US20140357512A1, “HISTONE DEACETYLASE (HDAC) BIOMARKERS IN MULTIPLE MYELOMA” (priority 2013, published 2014).

Test system: human myeloma cell line MM.1S
Assay: SILAC acetylated-lysine peptide profiling, HDAC inhibitor vs DMSO (light/heavy ratio)
Format: cell-based
Excerpt: An embodiment of the invention comprises utilizing the SILAC method in order to quantitate changes in protein expression between two or more populations of cells. The SILAC method is a technique based on mass spectrometry that detects differences in protein abundance among samples using non-radioactive isotopic labeling. The SILAC method is known in the art, and described in detail in Ong et al., “Stable Isotope Labeling by Amino Acids in Cell Culture, SILAC, as a Simple and Accurate Approach to Expression Proteomics”, Molecular & Cellular Proteomics, vol. 1, pp. 376-386 (2002), which is incorporated herein by reference in its entirety.
Briefly, the SILAC method involves growing two populations of cells in cell culture. The first population of cells is grown in growth media containing normal amino acids (“normal media”). The second population of cells is grown in media lacking a standard essential amino acid (such as lysine), but is then supplemented with a non-radioactive, isotopically labeled form of that essential amino acid (such as lysine labeled with ^13C atoms, rather than normal ^12C atoms), which is called “heavy media”. When the two populations of cells are each growing in the medium, they incorporate the amino acids into all of their proteins. The growth of cells maintained in the heavy media is no different from that in normal media. All peptides containing the heavy amino acids are heavier than their normal counterparts. The cells from each of the two populations of cells are lysed. The lysates from each of the two cell populations are then combined. The combined cell lysates are then analyzed by mass spectrometry. Pairs of chemically identical peptides of different stable isotope composition can be differentiated in a mass spectrometer due to their difference in mass. The ratio of peak intensities in the mass spectrum for such peptide pairs reflects the abundance ratio for the two proteins.
This example describes SILAC studies that were performed to compare the effects of three different HDAC inhibitors (Compound A, Compound B, and tubastatin A) to a control on a human multiple myeloma cell line. The HDAC inhibitors were also compared amongst themselves to determine differences in their effects.
A human myeloma cell line MM.1S was grown using either ^12C (light) or ^13C (heavy) lysine containing culture medium. The “heavy” cells were treated with DMSO as the control, and the “light” cells were treated with a single HDAC inhibitor at 37° C. for 6 hours. The heavy and light cells were lysed, and the lysates were mixed in 1:1 ratio and digested with the protease trypsin. The acetylated lysine containing peptides (due to the action of the HDAC inhibitor) in the digested peptide pool were captured by a non-specific anti-acetylated lysine antibody cocktail (the antibodies identify both light and heavy acetylated peptides), and subjected to mass spectrometry analysis in order to identify thousands of individual peptides.
Thousands of peptides were identified in pairs (^12C and ^13C) due to their known mass differences. The amino acid sequence and quantitative ratio (Light/Heavy) of a given peptide in two differentially treated cell lysates were then determined and annotated with their possible protein (gene) sources.
As stated above, three HDAC inhibitors (Compound A, Compound B, and Tubastatin A) were used. Thus, the SILAC method was performed three times, with a different HDAC inhibitor compared to a control each time. Accordingly, there are three pairs of quantitative data in the table below, i.e., Compound A:DMSO, Compound B:DMSO, and Tubastatin A:DMSO. A cut-off of 1.30 fold of change (increase or decrease) was then used to determine “changed” or “+” in the table, and any peptides with a fold of change less than 1.3 fold were determined to be “unchanged” or “0” in the table. Those peptides that were not identified were marked as “NA” in the table. […]

`O=C(CCCCCCNC(=O)c1cnc(N(c2ccccc2)c2ccccc2)nc1)NO` [Compound A, 2-(diphenylamino)-N-(7-(hydroxyamino)-7-oxoheptyl)pyrimidine-5-carboxamide] was tested, and the “light to heavy ratio (L/H ratio) of acetylated peptide EIAENALGK(ac)HK (SEQ ID NO: 617)” value (Isoform 1 of Heterogeneous nuclear ribonucleoprotein H3 [76], gene HNRNPH3, inhibitor:DMSO) was 0.47 log 2, the “light to heavy ratio (L/H ratio) of acetylated peptide DVSYQGGK(ac)SIK (SEQ ID NO: 571)” value (Isoform 1 of Histone-lysine N-methyltransferase MLL3 [758], gene MLL3, inhibitor:DMSO) was 0.42 log 2 and the “light to heavy ratio (L/H ratio) of acetylated peptide TLVLSDK(ac)HSPQK (SEQ ID NO: 523)” value (Isoform 1 of Histone-lysine N-methyltransferase MLL3 [2809], gene MLL3, inhibitor:DMSO) was −0.46 log 2. For the same compound, the “light to heavy ratio (L/H ratio) of acetylated peptide VK(ac)NELFK (SEQ ID NO: 565)” value (Isoform 1 of Hydroxyacyl-coenzyme A dehydrogenase mitochondrial [127], gene HADH, inhibitor:DMSO) was 0.41 log 2, the “light to heavy ratio (L/H ratio) of acetylated peptide LVAENK(ac)FGK (SEQ ID NO: 296)” value (Isoform 1 of Hydroxyacyl-coenzyme A dehydrogenase mitochondrial [301], HADH, drug:DMSO) was 0.74 log 2 and the “light to heavy ratio (L/H ratio) of acetylated peptide K(ac)[…] (SEQ ID NO: 316)” value (Isoform 1 of L-lactate dehydrogenase A chain [318], LDHA, drug:DMSO) was 1.00 log 2. The “light to heavy ratio (L/H ratio) of acetylated peptide INK(ac)ALDK (SEQ ID NO: 344)” value (Isoform 1 of Myosin-9 [435], MYH9, drug:DMSO) was 0.00 log 2, the “light to heavy ratio (L/H ratio), log 2 scale, acetylated peptide INKALDK(ac)TK (SEQ ID NO: 802)” value (Isoform 1 of Myosin-9 [439], gene MYH9, drug:DMSO) was 1.00 and the “light to heavy ratio (L/H ratio) of acetylated peptide FYK(ac)[…] (SEQ ID NO: 596)” value (Isoform 1 of N-alpha-acetyltransferase 50 NatE catalytic subunit [37], gene NAA50, inhibitor:DMSO) was 0.45 log 2. For the same compound, the “light to heavy ratio (L/H ratio), log 2 scale, acetylated peptide VYFK(ac)DTHPK (SEQ ID NO: 758)” value (Isoform 1 of NADH-cytochrome b5 reductase 3 [115], gene CYB5R3, drug:DMSO) was 0.90, the “light to heavy ratio (L/H ratio), log 2 scale, acetylated peptide […](ac)SK (SEQ ID NO: 767)” value (Isoform 1 of Peripherin [288], gene PRPH, drug:DMSO) was 0.94 and the “light to heavy ratio (L/H ratio) of acetylated peptide K(ac)EYVFADSK (SEQ ID NO: 616)” value (Isoform 1 of Phosphatidylinositol-345-trisphosphate 5-phosphatase 1 [371], gene INPP5D, LOC646743, inhibitor:DMSO) was 0.47 log 2. For the same compound, the “light to heavy ratio (L/H ratio) of acetylated peptide VK(ac)ILFNK (SEQ ID NO: 561)” value (Isoform 1 of Polypyrimidine tract-binding protein 1 [368], gene PTBP1, inhibitor:DMSO) was 0.40 log 2, the “light to heavy ratio (L/H ratio) of acetylated peptide TACAINK(ac)VLMGR (SEQ ID NO: 584)” value (Isoform 1 of Protein FAM98A [297], gene FAM98A, inhibitor:DMSO) was 0.43 log 2 and the “light to heavy ratio (L/H ratio) of acetylated peptide LMK(ac)YLLEQLK (SEQ ID NO: 585)” value (Isoform 1 of Protein MB21D1 [414], gene MB21D1, inhibitor:DMSO) was 0.43 log 2. The “light to heavy ratio (L/H ratio) of acetylated peptide VLSK(ac)[…] (SEQ ID NO: 294)” value (Isoform 1 of Protein SET [154], SET, drug:DMSO) was 0.69 log 2, the “light to heavy ratio (L/H ratio) of acetylated peptide […](ac)ALK (SEQ ID NO: 349)” value (Isoform 1 of RNA-binding protein with serine-rich domain 1 [218], RNPS1, drug:DMSO) was 0.00 log 2 and the “light to heavy ratio (L/H ratio), log 2 scale, acetylated peptide […](ac)TDQAQDVK (SEQ ID NO: 765)” value (Isoform 1 of Signal recognition particle 9 kDa protein [52], gene SRP9, drug:DMSO) was 0.93. For the same compound, the “light to heavy ratio (L/H ratio), log 2 scale, acetylated peptide AMMEK(ac)LVK(ac)SISQLK (SEQ ID NO: 814)” value (Isoform 1 of Signal transducer and activator of transcription 2 [158:161], gene STAT2, drug:DMSO) was 1.00, the “light to heavy ratio (L/H ratio) of acetylated peptide DMCLEK(ac)DTLGLFLR (SEQ ID NO: 530)” value (Isoform 1 of U5 small nuclear ribonucleoprotein 200 kDa helicase [745], gene SNRNP200, inhibitor:DMSO) was −0.41 log 2 and the “light to heavy ratio (L/H ratio) of acetylated peptide LEMSYSK(ac)FK (SEQ ID NO: 304)” value (Isoform 1 of UDP-N-acetylglucosamine--dolichyl-phosphate N-acetylglucosaminephosphotransferase [320], DPAGT1, drug:DMSO) was 1.00 log 2. For the same compound, the “light to heavy ratio (L/H ratio) of acetylated peptide PK(ac)PLLFK (SEQ ID NO: 544)” value (Isoform 1 of UDP-glucose:glycoprotein glucosyltransferase 1 [176], gene UGGT1, inhibitor:DMSO) was 0.39 log 2, the “light to heavy ratio (L/H ratio) of acetylated peptide TMSCSDK(ac)ILR (SEQ ID NO: 323)” value (Isoform 2 of Double-stranded RNA-specific adenosine deaminase [1013], ADAR, drug:DMSO) was 0.00 log 2 and the “light to heavy ratio (L/H ratio) of acetylated peptide […](ac)[…] (SEQ ID NO: 336)” value (Isoform 2 of Fibronectin type-III domain-containing protein 3A [507], FNDC3A, drug:DMSO) was 0.00 log 2. The “light to heavy ratio (L/H ratio), log 2 scale, acetylated peptide FYEQFSK(ac)NIK (SEQ ID NO: 799)” value (Isoform 2 of Heat shock protein HSP 90-alpha [565], gene HSP90AA1, drug:DMSO) was 1.00, the “light to heavy ratio (L/H ratio) of acetylated peptide SK(ac)GK(ac)NSDEEAPK (SEQ ID NO: 615)” value (Isoform 2 of Inhibitor of growth protein 4 [145:147], gene ING4, inhibitor:DMSO) was 0.47 log 2 and the “light to heavy ratio (L/H ratio) of acetylated peptide LSFISVGNK(ac)FK (SEQ ID NO: 521)” value (Isoform 2 of Myosin-VI [646], gene MYO6, inhibitor:DMSO) was −0.49 log 2. The “light to heavy ratio (L/H ratio) of acetylated peptide AEK(ac)[…] (SEQ ID NO: 503)” value (Isoform 2 of Neutral alpha-glucosidase AB [242], gene GANAB, inhibitor:DMSO) was −0.71 log 2, the “light to heavy ratio (L/H ratio) of acetylated peptide GAK(ac)PVVVLQK (SEQ ID NO: 611)” value (Isoform 2 of Nipped-B-like protein [1000], gene NIPBL, inhibitor:DMSO) was 0.47 log 2 and the “light to heavy ratio (L/H ratio) of acetylated peptide LIAGNK(ac)[…] (SEQ ID NO: 512)” value (Isoform 2 of Nuclear factor related to kappa-B-binding protein [1262], gene NFRKB, inhibitor:DMSO) was −0.58 log 2. The “light to heavy ratio (L/H ratio) of acetylated peptide […](ac)K (SEQ ID NO: 626)” value (Isoform 2 of Septin-7 [207], gene, inhibitor:DMSO) was 0.49 log 2, the “light to heavy ratio (L/H ratio) of acetylated peptide YQQFK(ac)DFQR (SEQ ID NO: 258)” value (Isoform 2 of Spliceosome RNA helicase DDX39B [349], SNORD84, DDX39B, drug:DMSO) was 0.39 log 2 and the “light to heavy ratio (L/H ratio) of acetylated peptide GLCEK(ac)PLASAAAK (SEQ ID NO: 536)” value (Isoform 2 of Transportin-3 [513], gene TNPO3, inhibitor:DMSO) was −0.39 log 2. The “light to heavy ratio (L/H ratio), log 2 scale, acetylated peptide LEPLK(ac)PLK (SEQ ID NO: 772)” value (Isoform 3 of Proline-rich protein 12 [1223], gene PRR12, drug:DMSO) was 1.00, the “light to heavy ratio (L/H ratio), log 2 scale, acetylated peptide DQTK(ac)SIVEK (SEQ ID NO: 810)” value (Isoform 3 of Reticulon-3 [217], gene RTN3, drug:DMSO) was 1.00 and the “light to heavy ratio (L/H ratio) of acetylated peptide LAAFGQLHK(ac)[…] (SEQ ID NO: 570)” value (Isoform 5 of Interleukin enhancer-binding factor 3 [332], gene ILF3, inhibitor:DMSO) was 0.41 log 2.
